Substitutions are numbered along the chain they refer to.
Assays:
Set-up in all cases: WT (1–553); expressed in transfected cells
GLP-2R Y182^1.43A = biological target: T1, GLP-2R Y182^1.43A (Homo sapiens, UniProt O95838, Y182A); test: radioligand competition binding, Y182^1.43A; settings: COS-7, Y182^1.43A; [^125I]GLP-2(1–33, M10Y) 10–15 pM, 4 h, 4 °C; mean ± SEM, n ≥ 3 in duplicate
T1 sequence (O95838 1-553 Y182A): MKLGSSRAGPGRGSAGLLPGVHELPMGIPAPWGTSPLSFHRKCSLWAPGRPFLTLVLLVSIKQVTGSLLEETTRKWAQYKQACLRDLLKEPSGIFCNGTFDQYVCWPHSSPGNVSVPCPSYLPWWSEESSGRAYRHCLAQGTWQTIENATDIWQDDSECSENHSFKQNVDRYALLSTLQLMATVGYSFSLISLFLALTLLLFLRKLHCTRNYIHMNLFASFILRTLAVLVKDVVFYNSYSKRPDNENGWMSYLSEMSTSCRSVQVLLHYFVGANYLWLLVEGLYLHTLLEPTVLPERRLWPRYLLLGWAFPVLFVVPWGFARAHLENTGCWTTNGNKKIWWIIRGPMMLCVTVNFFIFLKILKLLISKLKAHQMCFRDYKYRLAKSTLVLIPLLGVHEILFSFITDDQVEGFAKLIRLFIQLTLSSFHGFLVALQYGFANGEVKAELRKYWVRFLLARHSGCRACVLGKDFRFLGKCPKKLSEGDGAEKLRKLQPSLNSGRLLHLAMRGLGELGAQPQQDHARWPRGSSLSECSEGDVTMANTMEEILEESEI
Method: (§1) A stepwise oxidation reaction was performed by addition of 6 aliquots of 5 µL ChloramineT (30 µL/mL) with a 1-min interval during constant stirring. The reaction was terminated by the addition of 400 µL phase A (0.1% trifluoracetic acid) before being fractionated into 1 mL volume by reverse-phase high-performance liquid chromatography (RP-HPLC, Waters 600 SimiPrep system) on a C18 column. The iodinated protein was […] by increasing concentrations of phase B (Acetonitrile + 0.1% TFA) and tested for competitive binding ability.
(§2) One day before transfection, the COS-7 cells were seeded in 75 cm^2 culture flasks (3 million cells/flask) in DMEM, containing 3.9 g/L NaHCO3 and supplemented with 10% FBS, 1% L-glutamine, 180 units/mL penicillin and 45 µg/mL streptomycin. After an overnight culture at 37 °C, 10% CO2 and 95% air humidity, the cells were transiently transfected with different GLP-2R constructs or pcDNA3.1 vector as previously described.[52] Following 24-h incubation, the cells were transferred to Costa® microtiter plates (150,000 cells/well, PerkinElmer) to achieve a 5%–10% specific binding. […] The cells were then washed twice in binding buffer (4 °C), lysed and counted for radioactivity using a Wallac Gamma Counter (PerkinElmer).

GLP-2R R242^ECL1E = biological target: T2, GLP-2R R242^ECL1E (Homo sapiens, UniProt O95838, R242E); test: radioligand competition binding, R242^ECL1E; settings: COS-7, R242^ECL1E; [^125I]GLP-2(1–33, M10Y) 10–15 pM, 4 h, 4 °C; n ≥ 3 in duplicate
T2 sequence (O95838 1-553 R242E): T1 sequence (O95838 1-553 Y182A) with A182Y, R242E
Method: as §1, §2

GLP-2R H268^3.37A = biological target: T3, GLP-2R H268^3.37A (Homo sapiens, UniProt O95838, H268A); test: radioligand competition binding, H268^3.37A; settings: COS-7, H268^3.37A; [^125I]GLP-2(1–33, M10Y) 10–15 pM, 4 h, 4 °C; mean ± SEM, n ≥ 3 in duplicate
T3 sequence (O95838 1-553 H268A): T1 sequence (O95838 1-553 Y182A) with A182Y, H268A
Method: as §1, §2

| Structure (SMILES) | % Binding of WT (GLP-2R Y182^1.43A) [%] | % Binding of WT (GLP-2R R242^ECL1E) | % Binding of WT (GLP-2R H268^3.37A) [%] |
| --- | --- | --- | --- |
| CC[C@H](C)[C@H](NC(=O)[C@H](Cc1ccccc1)NC(=O)[C@H](CC(=O)O)NC(=O)[C@H](CCCNC(=N)N)NC(=O)[C@H](C)NC(=O)[C@H](C)NC(=O)[C@H](CC(C)C)NC(=O)[C@H](CC(N)=O)NC(=O)[C@H](CC(=O)O)NC(=O)[C@H](CC(C)C)NC(=O)[C@@H](NC(=O)[C@@H](NC(=O)[C@H](CC(N)=O)NC(=O)[C@H](CCSC)NC(=O)[C@H](CCC(=O)O)NC(=O)[C@H](CC(=O)O)NC(=O)[C@H](CO)NC(=O)[C@H](Cc1ccccc1)NC(=O)[C@H](CO)NC(=O)CNC(=O)[C@H](CC(=O)O)NC(=O)[C@H](C)NC(=O)[C@@H](N)Cc1c[nH]cn1)[C@@H](C)O)[C@@H](C)CC)C(=O)N[C@@H](CC(N)=O)C(=O)N[C@@H](Cc1c[nH]c2ccccc12)C(=O)N[C@@H](CC(C)C)C(=O)N[C@H](C(=O)N[C@@H](CCC(N)=O)C(=O)N[C@H](C(=O)N[C@@H](CCCCN)C(=O)N[C@H](C(=O)N[C@H](C(=O)N[C@@H](CC(=O)O)C(=O)O)[C@@H](C)O)[C@@H](C)CC)[C@@H](C)O)[C@@H](C)CC [Human GLP-2 (1–33)] | 3.4 ± 1.0 | N.B. | 2.1 ± 0.8 |
| CC[C@H](C)[C@H](NC(=O)[C@H](Cc1ccccc1)NC(=O)[C@H](CC(=O)O)NC(=O)[C@H](CCCNC(=N)N)NC(=O)[C@H](C)NC(=O)[C@H](C)NC(=O)[C@H](CC(C)C)NC(=O)[C@H](CC(N)=O)NC(=O)[C@H](CC(=O)O)NC(=O)[C@H](CC(C)C)NC(=O)[C@@H](NC(=O)[C@@H](NC(=O)[C@H](CC(N)=O)NC(=O)[C@H](CCSC)NC(=O)[C@H](CCC(=O)O)NC(=O)[C@H](CC(=O)O)NC(=O)[C@H](CO)NC(=O)[C@H](Cc1ccccc1)NC(=O)[C@H](CO)NC(=O)CNC(=O)[C@H](CC(=O)O)NC(=O)CNC(=O)[C@@H](N)Cc1c[nH]cn1)[C@@H](C)O)[C@@H](C)CC)C(=O)N[C@@H](CC(N)=O)C(=O)N[C@@H](Cc1c[nH]c2ccccc12)C(=O)N[C@@H](CC(C)C)C(=O)N[C@H](C(=O)N[C@@H](CCC(N)=O)C(=O)N[C@H](C(=O)N[C@@H](CCCCN)C(=O)N[C@H](C(=O)N[C@H](C(=O)N[C@@H](CC(=O)O)C(=O)O)[C@@H](C)O)[C@@H](C)CC)[C@@H](C)O)[C@@H](C)CC [Teduglutide] | 3.2 ± 1.3 | N.B. | 0.7 ± 1.8 |

From article PMC7785020, “A unique hormonal recognition feature of the human glucagon-like peptide-2 receptor” (Cell Research, 2020)
